Reference: ChEMBL document CHEMBL6115036, “Exploration of membrane-active cephalosporin derivatives as potent antibacterial agents against Staphylococcus aureus biofilms and persisters” (Eur J Med Chem, 2025)
The source made the active and inactive calls. The calls are words filed in the database; no cut-off is given here.

How the values were obtained:
[1] = test system: Staphylococcus aureus; test: Antimicrobial activity against Staphylococcus aureus incubated for 16 to 18 hrs by broth dilution assay; type: functional; conditions: time 16-18 hrs
[2] = test system: Staphylococcus aureus; test: Induction of inner membrane permeability in Staphylococcus aureus assessed as increase in fluorescence intensity at 16 ug/ml measured for 20 mins by PI dye based analysis; type: functional, organism-based; conditions: dose 16.0 µg/ml
[3] = test system: Staphylococcus aureus; test: Induction of cytoplasmic membrane depolarization in Staphylococcus aureus assessed as increase in fluorescence intensity at 16 ug/ml measured for 20 mins by DiSC3(5) dye based analysis; type: functional, organism-based; conditions: dose 16.0 µg/ml
[4] = test system: Enterococcus faecalis; test: Antimicrobial activity against Enterococcus faecalis incubated for 16 to 18 hrs by broth dilution assay; type: functional; conditions: time 16-18 hrs
[5] = test system: Staphylococcus aureus; test: Induction of cytoplasmic membrane depolarization in Staphylococcus aureus assessed as increase in fluorescence intensity measured for 20 mins by DiSC3(5) dye based analysis; type: functional, organism-based
[6] = test system: Staphylococcus aureus; test: Induction of inner membrane permeability in Staphylococcus aureus assessed as increase in fluorescence intensity measured for 20 mins by PI dye based analysis; type: functional, organism-based
[7] = test system: Stenotrophomonas maltophilia; test: Antimicrobial activity against Stenotrophomonas maltophilia incubated for 16 to 18 hrs by broth dilution assay; type: functional; conditions: time 16-18 hrs
[8] = test system: Escherichia coli; test: Antimicrobial activity against Escherichia coli incubated for 16 to 18 hrs by broth dilution assay; type: functional; conditions: time 16-18 hrs
[9] = Hemolytic activity in sheep red blood cells incubated for 1 hr; type: toxicity, cell-based, Ovis aries, Erythrocyte
[10] = test system: Staphylococcus aureus; test: Induction of inner membrane permeability in Staphylococcus aureus assessed as increase in fluorescence intensity at 32 ug/ml measured for 20 mins by PI dye based analysis; type: functional, organism-based; conditions: dose 32.0 µg/ml
[11] = test system: Staphylococcus aureus; test: Induction of cytoplasmic membrane depolarization in Staphylococcus aureus assessed as increase in fluorescence intensity at 32 ug/ml measured for 20 mins by DiSC3(5) dye based analysis; type: functional, organism-based; conditions: dose 32.0 µg/ml

Row | Compound | MIC [1] [µg/mL] | Activity [2] | Activity [3] | MIC [4] [µg/mL] | Activity [5] | Activity [6] | MIC [7] [µg/mL] | MIC [8] [µg/mL] | HC50 at 1 h [9] [µg/mL] | Activity [10] | Activity [11]
1 | CCCCCCCCNC(=O)c1ccc[n+](CC2=C(C(=O)OCc3ccc(OC)cc3)N3C(=O)[C@@H](NC(=O)Cc4ccccc4)[C@H]3SC2)c1.[I-] | 0.25 | Active | Active | – | – | – | – | – | – | – | –
2 | CCCCCCCCCC[n+]1ccc(C(=O)N[C@@H]2C(=O)N3C(C(=O)OC(c4ccccc4)c4ccccc4)=C(COC(C)=O)CS[C@H]23)cc1.[I-] | 2 | – | – | 2 | Active | Active | 32 | 32 | – | – | –
3 | CCCCCCCCCCNC(=O)c1cc[n+](CC2=C(C(=O)O)N3C(=O)[C@@H](NC(=O)Cc4ccccc4)[C@H]3SC2)cc1.[I-] | 0.063 | inactive | inactive | 16 | – | – | > 128 | > 128 | 321 | – | –
4 | CCCCCCCCCCCCNC(=O)c1ccc[n+](CC2=C(C(=O)O)N3C(=O)[C@@H](NC(=O)Cc4ccccc4)[C@H]3SC2)c1.[I-] | 0.5 | inactive | inactive | 16 | – | – | > 128 | > 128 | 291 | – | –
5 | CCCCCCCC[n+]1ccc(SCC2=C(C(=O)O)N3C(=O)[C@@H](NC(=O)Cc4ccccc4)[C@H]3SC2)cc1.O=C([O-])C(F)(F)F | 0.063 | – | – | 4 | inactive | inactive | 128 | 128 | – | – | –
6 | CCCCCCCCCCCC[n+]1ccc(-c2cc[n+](CC3=C(C(=O)OCc4ccc(OC)cc4)N4C(=O)[C@@H](NC(=O)Cc5ccccc5)[C@H]4SC3)cc2)cc1.[I-].[I-] | 1 | – | – | 4 | – | – | 32 | 32 | 273 | Active | Active
7 | CCCCCCCC[n+]1ccc(C(=O)N[C@@H]2C(=O)N3C(C(=O)O)=C(COC(C)=O)CS[C@H]23)cc1.[I-] | > 128 | – | – | > 128 | inactive | inactive | > 128 | > 128 | – | – | –
8 | CCCCCCCCCCCCCCNC(=O)c1cc[n+](CC2=C(C(=O)O)N3C(=O)[C@@H](NC(=O)Cc4ccccc4)[C@H]3SC2)cc1.[I-] | 4 | inactive | inactive | 16 | – | – | > 128 | > 128 | 151 | – | –
9 | CCCCCC[n+]1ccc(-c2cc[n+](CC3=C(C(=O)[O-])N4C(=O)[C@@H](NC(=O)Cc5ccccc5)[C@H]4SC3)cc2)cc1.O=C([O-])C(F)(F)F | 0.125 | – | – | 16 | – | – | 16 | 16 | > 1280 | – | –
10 | CCCCCCCCCCNC(=O)c1cc[n+](CC2=C(C(=O)OCc3ccc(OC)cc3)N3C(=O)[C@@H](NC(=O)Cc4ccccc4)[C@H]3SC2)cc1.[I-] | 0.25 | Active | Active | – | – | – | – | – | – | – | –
11 | CCCCCCCCCCNC(=O)c1ccc[n+](CC2=C(C(=O)OCc3ccc(OC)cc3)N3C(=O)[C@@H](NC(=O)Cc4ccccc4)[C@H]3SC2)c1.[I-] | 0.25 | Active | Active | – | – | – | – | – | – | – | –
12 | CCCCCCCCNC(=O)c1ccc[n+](CC2=C(C(=O)O)N3C(=O)[C@@H](NC(=O)Cc4ccccc4)[C@H]3SC2)c1.[I-] | 0.031 | inactive | inactive | 8 | – | – | > 128 | > 128 | > 1280 | – | –
13 | CCCCCCCCNC(=O)c1cc[n+](CC2=C(C(=O)OCc3ccc(OC)cc3)N3C(=O)[C@@H](NC(=O)Cc4ccccc4)[C@H]3SC2)cc1.[I-] | 0.25 | Active | Active | – | – | – | – | – | – | – | –
14 | CCCCCC[n+]1ccc(C(=O)N[C@@H]2C(=O)N3C(C(=O)O)=C(COC(C)=O)CS[C@H]23)cc1.[I-] | > 128 | – | – | > 128 | inactive | inactive | > 128 | > 128 | – | – | –
15 | CCCCCCCCCCNC(=O)c1ccc[n+](CC2=C(C(=O)O)N3C(=O)[C@@H](NC(=O)Cc4ccccc4)[C@H]3SC2)c1.[I-] | 0.063 | inactive | inactive | 16 | – | – | > 128 | > 128 | 318 | – | –
16 | CCCCCCCCCCCCCCCC[n+]1ccc(-c2cc[n+](CC3=C(C(=O)OCc4ccc(OC)cc4)N4C(=O)[C@@H](NC(=O)Cc5ccccc5)[C@H]4SC3)cc2)cc1.[I-].[I-] | 4 | – | – | 8 | – | – | 128 | 128 | 109 | Active | Active
17 | CCCCCCCC[n+]1ccc(C(=O)N[C@@H]2C(=O)N3C(C(=O)OC(c4ccccc4)c4ccccc4)=C(COC(C)=O)CS[C@H]23)cc1.[I-] | 16 | – | – | 8 | Active | Active | 32 | 64 | – | – | –
18 | CCCCCC[n+]1ccc(-c2cc[n+](CC3=C(C(=O)OCc4ccc(OC)cc4)N4C(=O)[C@@H](NC(=O)Cc5ccccc5)[C@H]4SC3)cc2)cc1.[I-].[I-] | 0.5 | – | – | 64 | – | – | 64 | 64 | > 1280 | – | –
19 | CCCCCCCCNC(=O)c1cc[n+](CC2=C(C(=O)O)N3C(=O)[C@@H](NC(=O)Cc4ccccc4)[C@H]3SC2)cc1.[I-] | 0.063 | inactive | inactive | 16 | – | – | > 128 | > 128 | > 1280 | – | –
20 | CCCCCCCCCCCCNC(=O)c1cc[n+](CC2=C(C(=O)O)N3C(=O)[C@@H](NC(=O)Cc4ccccc4)[C@H]3SC2)cc1.[I-] | 0.25 | inactive | inactive | 8 | – | – | > 128 | > 128 | 254 | – | –
21 | CCCCCCCCCC[n+]1ccc(-c2cc[n+](CC3=C(C(=O)OCc4ccc(OC)cc4)N4C(=O)[C@@H](NC(=O)Cc5ccccc5)[C@H]4SC3)cc2)cc1.[I-].[I-] | 0.5 | – | – | 16 | – | – | 128 | 128 | > 1280 | Active | Active
22 | CCCCCCCC[n+]1ccc(SCC2=C(C(=O)OCc3ccc(OC)cc3)N3C(=O)[C@@H](NC(=O)Cc4ccccc4)[C@H]3SC2)cc1.O=C([O-])C(F)(F)F | 0.063 | – | – | 8 | Active | Active | 128 | 64 | – | – | –
23 | CCCCCC[n+]1ccc(C(=O)N[C@@H]2C(=O)N3C(C(=O)OC(c4ccccc4)c4ccccc4)=C(COC(C)=O)CS[C@H]23)cc1.[I-] | 64 | – | – | 128 | Active | Active | > 128 | > 128 | – | – | –
24 | CCCCCCCCCCCCCCNC(=O)c1ccc[n+](CC2=C(C(=O)O)N3C(=O)[C@@H](NC(=O)Cc4ccccc4)[C@H]3SC2)c1.[I-] | 2 | inactive | inactive | 16 | – | – | > 128 | > 128 | 155 | – | –
